Laboratory results taken from ChEMBL document CHEMBL6074626, “Recent advances in triazole synthesis via click chemistry and their pharmacological applications: A review” (Bioorg Med Chem Lett, 2024).

How the values were obtained:
[1] = Cytotoxicity against CHO-K1 cells assessed as reduction in cell growth incubated for 72 hrs by MTT assay; settings: Chinese hamster (Cricetulus griseus)
[2] = biological target: Cystic fibrosis transmembrane conductance regulator (Homo sapiens, UniProt P13569, F508DEL); assay: Activation of CFTR F508del mutant (unknown origin)
[3] = biological target: T1, UDP-N-acetylglucosamine--peptide N-acetylglucosaminyltransferase 110 kDa subunit (Homo sapiens, UniProt O15294)
T1 sequence (O15294 whole entry): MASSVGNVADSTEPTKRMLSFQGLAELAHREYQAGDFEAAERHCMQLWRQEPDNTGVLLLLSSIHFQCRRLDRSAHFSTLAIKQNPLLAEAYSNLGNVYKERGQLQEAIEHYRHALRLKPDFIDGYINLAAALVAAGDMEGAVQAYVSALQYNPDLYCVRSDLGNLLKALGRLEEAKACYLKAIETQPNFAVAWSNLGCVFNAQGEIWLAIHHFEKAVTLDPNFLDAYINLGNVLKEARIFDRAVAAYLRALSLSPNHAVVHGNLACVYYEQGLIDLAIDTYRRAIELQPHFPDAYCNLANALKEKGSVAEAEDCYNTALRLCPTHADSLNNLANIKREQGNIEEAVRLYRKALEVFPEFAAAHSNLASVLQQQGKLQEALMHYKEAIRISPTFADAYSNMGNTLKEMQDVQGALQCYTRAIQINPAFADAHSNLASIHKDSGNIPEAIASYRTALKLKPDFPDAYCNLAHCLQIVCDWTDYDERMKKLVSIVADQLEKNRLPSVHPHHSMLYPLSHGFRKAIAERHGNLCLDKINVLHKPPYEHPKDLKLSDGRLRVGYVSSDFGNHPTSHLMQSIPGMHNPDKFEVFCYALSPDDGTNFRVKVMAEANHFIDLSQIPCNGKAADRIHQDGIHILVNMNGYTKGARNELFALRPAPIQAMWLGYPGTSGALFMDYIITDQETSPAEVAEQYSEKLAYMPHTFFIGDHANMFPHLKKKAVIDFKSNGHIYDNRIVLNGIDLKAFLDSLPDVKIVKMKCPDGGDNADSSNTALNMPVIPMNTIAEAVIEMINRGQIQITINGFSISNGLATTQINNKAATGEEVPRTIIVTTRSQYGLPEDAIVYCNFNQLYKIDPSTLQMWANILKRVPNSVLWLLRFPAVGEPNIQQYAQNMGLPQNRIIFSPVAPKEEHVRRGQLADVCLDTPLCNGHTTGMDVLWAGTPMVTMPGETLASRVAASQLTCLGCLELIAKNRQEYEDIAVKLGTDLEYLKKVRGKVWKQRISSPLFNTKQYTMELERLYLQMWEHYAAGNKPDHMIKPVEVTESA
Description: Binding affinity to human recombinant OGT (312 to 1031 residue) assessed as inhibition constant by fluorescence based analysis

K562 = assay: Antiproliferative activity against human K562 cells assessed as reduction in cell viability incubated for 72 hrs by MTT assay; settings: K562, 72 h
HCT-116 = assay: Antiproliferative activity against human HCT-116 cells assessed as reduction in cell viability incubated for 72 hrs by MTT assay; settings: HCT-116, 72 h

Sequence of Cystic fibrosis transmembrane conductance regulator (P13569 as listed by the source): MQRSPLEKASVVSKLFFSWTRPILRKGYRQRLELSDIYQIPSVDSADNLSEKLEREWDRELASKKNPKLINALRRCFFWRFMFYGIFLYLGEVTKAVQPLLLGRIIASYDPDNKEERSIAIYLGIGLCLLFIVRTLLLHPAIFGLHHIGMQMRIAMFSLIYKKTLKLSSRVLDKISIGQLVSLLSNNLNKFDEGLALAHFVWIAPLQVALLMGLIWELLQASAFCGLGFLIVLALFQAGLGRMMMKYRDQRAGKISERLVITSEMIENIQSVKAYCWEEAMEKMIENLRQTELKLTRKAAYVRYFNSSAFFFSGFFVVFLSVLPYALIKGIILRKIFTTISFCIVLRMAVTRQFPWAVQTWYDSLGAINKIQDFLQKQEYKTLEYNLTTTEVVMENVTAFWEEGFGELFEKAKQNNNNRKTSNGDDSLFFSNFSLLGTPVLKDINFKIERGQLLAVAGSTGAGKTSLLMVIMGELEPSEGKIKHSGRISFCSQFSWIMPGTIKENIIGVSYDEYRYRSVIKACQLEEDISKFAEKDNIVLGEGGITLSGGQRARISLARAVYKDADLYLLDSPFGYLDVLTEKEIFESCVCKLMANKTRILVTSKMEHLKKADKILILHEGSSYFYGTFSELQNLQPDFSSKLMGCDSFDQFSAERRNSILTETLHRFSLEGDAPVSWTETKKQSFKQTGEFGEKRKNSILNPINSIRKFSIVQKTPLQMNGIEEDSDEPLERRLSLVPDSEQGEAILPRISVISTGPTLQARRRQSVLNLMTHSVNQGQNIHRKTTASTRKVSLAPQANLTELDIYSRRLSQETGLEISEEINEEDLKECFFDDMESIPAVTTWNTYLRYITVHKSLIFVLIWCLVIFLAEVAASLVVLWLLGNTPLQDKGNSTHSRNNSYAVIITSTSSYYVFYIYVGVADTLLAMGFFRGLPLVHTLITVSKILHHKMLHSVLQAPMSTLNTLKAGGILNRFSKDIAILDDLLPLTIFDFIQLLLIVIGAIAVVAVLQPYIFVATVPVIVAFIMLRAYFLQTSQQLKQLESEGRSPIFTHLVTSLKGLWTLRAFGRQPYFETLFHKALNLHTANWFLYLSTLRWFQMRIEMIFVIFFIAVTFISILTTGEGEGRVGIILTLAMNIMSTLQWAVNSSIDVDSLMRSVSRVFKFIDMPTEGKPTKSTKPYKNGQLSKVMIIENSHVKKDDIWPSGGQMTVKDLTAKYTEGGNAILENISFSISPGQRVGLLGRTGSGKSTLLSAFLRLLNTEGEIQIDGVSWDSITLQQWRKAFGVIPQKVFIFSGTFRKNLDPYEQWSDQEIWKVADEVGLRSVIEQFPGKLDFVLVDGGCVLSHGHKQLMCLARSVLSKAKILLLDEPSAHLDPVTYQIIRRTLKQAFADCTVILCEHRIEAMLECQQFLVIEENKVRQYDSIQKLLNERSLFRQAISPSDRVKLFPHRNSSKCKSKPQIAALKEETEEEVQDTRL

Question: Which IC50 at 72 h [1] does the source give for O=C(Cn1cc(CSc2nc3cc(OC(F)F)ccc3[nH]2)nn1)NC1CCCCC1 here?
Answer: 53.3 µM

Question: With Cc1ccc(-n2cc(C3(c4ccc5c(c4)OC(F)(F)O5)CC3)nn2)cc1-c1cccc(C(=O)O)c1 as the molecule, how does the IC50 [2] read?
Answer: 0.66 µM

Question: With CC(=O)N[C@H]1C(n2cc(COP(=O)(O)OC[C@H]3O[C@@H](n4ccc(=O)[nH]c4=O)[C@H](O)[C@@H]3O)nn2)O[C@H](CO)[C@@H](O)[C@@H]1O (stereo not given in full) as the molecule, how does the Ki [3] read?
Answer: 232 µM

Question: With COC(=O)CC[C@@H](C)[C@H]1CC[C@H]2[C@@H]3[C@@H](O)C[C@@H]4C[C@H](n5cc(CCCCC#Cc6nc7c(N)ncnc7n6[C@@H]6O[C@H](CO)[C@@H](C)[C@H]6C)nn5)CC[C@]4(C)[C@H]3CC[C@]12C as the molecule, how does the IC50 (K562) read?
Answer: 8.5 µM

Question: And the IC50 (HCT-116)?
Answer: 23.1 µM
